The values that follow come from ChEMBL document CHEMBL1136837, “Unified QSAR approach to antimicrobials. 4. Multi-target QSAR modeling and comparative multi-distance study of the giant components of antiviral drug-drug complex networks” (Bioorg Med Chem, 2009).

pIC50: −log10 of the molar value.

For one test, the system named is Hepatitis B virus. In words: Antiviral activity against Hepatitis B virus. In kind it is functional, organism-based.
The subject of another test is Human alphaherpesvirus 2. In words: Antiviral activity against Herpes simplex virus 2. In kind it is functional, organism-based. The following applies: Human alphaherpesvirus 2.
A further test has as its system Human alphaherpesvirus 3. In words: Antiviral activity against Varicella zoster virus. In kind it is functional, organism-based.
In the next test the test system is Vaccinia virus. In words: Antiviral activity against Vaccinia virus. In kind it is functional, organism-based, Orthopoxvirus vaccinia. The following applies: Orthopoxvirus vaccinia.
The test system of test [1] is Human immunodeficiency virus 1. Put plainly: Antiviral activity against HIV1. In kind it is functional, organism-based.
The next test deals with Human betaherpesvirus 5. Put plainly: Antiviral activity against Human cytomegalovirus. In kind it is functional, organism-based. The following applies: Human betaherpesvirus 5.
For a further test, the system named is Human alphaherpesvirus 1. Put plainly: Antiviral activity against Herpes simplex virus 1. In kind it is functional, organism-based. The following applies: Human alphaherpesvirus 1.
The subject of a further test is Hepatitis C virus. Put plainly: Antiviral activity against Hepatitis C virus. The following applies: Hepatitis C virus. In kind it is functional, organism-based, Hepacivirus hominis.
The subject of test [2] is unidentified influenza virus. In words: Antiviral activity against influenza virus. In kind it is functional, organism-based.

One may read the pIC50 as the negative decadic logarithm of the IC50, by convention in mol/L. `COc1cccc(Sc2nc(N)nc3c2ncn3CCOCP(=O)(OCC(F)(F)F)OCC(F)(F)F)c1` showed a pIC50 in the test with Hepatitis B virus of 7.40. Same read-out and setting: for `CCCOc1ccc(Sc2nc(N)nc3c2ncn3CCOCP(=O)(OCC(F)(F)F)OCC(F)(F)F)cc1` the value was 6.06; for `Cc1ccccc1Sc1nc(N)nc2c1ncn2CCOCP(=O)(OCC(F)(F)F)OCC(F)(F)F`, 7.10. In the case of `Nc1nc(Sc2ccc3ccccc3c2)c2ncn(CCOCP(=O)(OCC(F)(F)F)OCC(F)(F)F)c2n1`, the pIC50 with Hepatitis B virus was 7.05. The pIC50 values of the last two compounds are within 0.2 log units of each other.

Consider `Cc1ccc(Sc2nc(N)nc3c2ncn3CCOCP(=O)(OCC(F)(F)F)OCC(F)(F)F)cc1`, for which the pIC50 with Hepatitis B virus is 7.22. On to `Nc1nc(Sc2ccccc2)c2ncn(CCOCP(=O)(OCC(F)(F)F)OCC(F)(F)F)c2n1`, for which the pIC50 in the test on Hepatitis B virus is 7.30. The pIC50 values of the last two compounds are within 0.2 log units of each other.

As to `Nc1nc(Sc2ccc([N+](=O)[O-])cc2)c2ncn(CCOCP(=O)(OCC(F)(F)F)OCC(F)(F)F)c2n1`, the pIC50 in the test on Hepatitis B virus was 6.28. In turn, `CCc1ccc(Sc2nc(N)nc3c2ncn3CCOCP(=O)(OCC(F)(F)F)OCC(F)(F)F)cc1` had a pIC50 in the test with Hepatitis B virus of 6.40. The pIC50 values of the last two compounds are within 0.2 log units of each other.

For the compound `Nc1nc(Sc2ccc(OC(F)(F)F)cc2)c2ncn(CCOCP(=O)(OCC(F)(F)F)OCC(F)(F)F)c2n1`, in the test on Hepatitis B virus, the pIC50 was 7.22. Compound `CCOc1ccc(Sc2nc(N)nc3c2ncn3CCOCP(=O)(OCC(F)(F)F)OCC(F)(F)F)cc1` showed a pIC50 in the test on Hepatitis B virus of 6.19. This pIC50 is 1.03 log units lower than that of the compound before. In turn, `CCCCOc1ccc(Sc2nc(N)nc3c2ncn3CCOCP(=O)(OCC(F)(F)F)OCC(F)(F)F)cc1` had a pIC50 with Hepatitis B virus of 6.00.

The compound `CC(C)c1ccc(Sc2nc(N)nc3c2ncn3CCOCP(=O)(OCC(F)(F)F)OCC(F)(F)F)cc1` gave a pIC50 in the test on Hepatitis B virus of 6.01.

On to `CCOC(=O)Cc1c(N)nc(N)n(CCOCP(=O)(O)O)c1=O`, for which the pIC50 in the test on Human alphaherpesvirus 2 was 8.92; in the test on Human alphaherpesvirus 3, 9.82; with Vaccinia virus it was 8.92; in test [1], 9.52; with Human betaherpesvirus 5, 9.82; in the test with Human alphaherpesvirus 1 it was 8.92.

As for `O=c1[nH]c(=O)n([C@H]2C[C@H](O)[C@]3(CO)C[C@H]23)cc1/C=C/Br`, the pIC50 is 3.54 with Human alphaherpesvirus 2 and 5.19 in the test with Human alphaherpesvirus 1. As for `Nc1nc(N)c(Br)c(OCCOCP(=O)(O)O)n1`, the pIC50 in the test with Human alphaherpesvirus 2 was 9.15; with Human alphaherpesvirus 3, 9.82; with Vaccinia virus it was 9.15; in the test on Human betaherpesvirus 5, 9.82. Turning to `Nc1nc(N)c(Cl)c(OCCOCP(=O)(O)O)n1`, the pIC50 in the test with Human alphaherpesvirus 2 and with Vaccinia virus was 8.92 throughout. `O=C(O)C(=O)CCc1ccccc1`: the values for the pIC50 (in the test on Hepatitis C virus; in test [2]) were 4.30 and 3.30, respectively. As to `CC(C)CC1=N/C(=C\c2ccc(F)cc2)C(=O)NC1=O`, in test [2], the pIC50 was 3.44. The same measure, in the same setting: for `O=C(Nc1ccccc1)Nc1ccc2c(C(=O)c3ccccc3)c(O)n(O)c2c1` the value was 4.54. For the compound `CC(C)/C=C1\N=C(CC(C)C)C(=O)N(O)C1=O`, in test [2], the pIC50 is 5.26. With `O=C(O)/C=C/C(=O)c1ccccc1`, the pIC50 in test [2] is 3.30.

Turning to `CC(=O)c1c(O)n(O)c2cc(NC(=O)c3ccc4ccccc4c3)ccc12`, the pIC50 in [2] is 5.05. Consider `O=c1[nH]c2nccnc2c(=O)n1O`, for which, in test [2], the pIC50 is 4.02. This pIC50 is 1.03 log units lower than that of the compound before. `O=C1Cc2ccccc2CN1O` had a pIC50 in [2] of 4.00.

Take `O=C1Cc2ccccc2CC(=O)N1O`: the negative-log IC50 (pIC50) in test [2] is 3.00. `O=c1c2nccnc2ncn1O`: the pIC50 in test [2] is 3.30. Consider `O=C(Nc1cccc(C(=O)O)c1)Nc1ccc2c(C(=O)c3ccccc3)c(O)n(O)c2c1`, for which the pIC50 in test [2] is 5.52. Against the preceding compound, the pIC50 is 2.22 log units higher. In the case of `CCC(=O)c1c(O)n(O)c2cc(NC(=O)Nc3ccccc3Cl)ccc12`, the pIC50 in test [2] is 4.30. As to `O=C1Cc2ccccc2C(=O)N1O`, in [2], the pIC50 is 3.15. This pIC50 lies 1.15 log units lower than the previous one. Turning to `Cc1nn([C@H]2C[C@H](O)[C@@H](CO)S2)c(=O)nc1O`, the pIC50 in the test with Human alphaherpesvirus 2 is 5.48; in the test with Human alphaherpesvirus 3 it was 5.30; with Vaccinia virus, 5.66; in the test with Human betaherpesvirus 5, 3.70; with Human alphaherpesvirus 1, 4.74. With `CCc1nn([C@H]2C[C@H](O)[C@@H](CO)S2)c(=O)nc1O`, the pIC50 is 3.70 in the test with Human alphaherpesvirus 2; 4.40 with Human alphaherpesvirus 3; 3.70 in the test with Vaccinia virus; 4.40 in the test on Human betaherpesvirus 5; 3.92 with Human alphaherpesvirus 1. Take `O=C1c2ccccc2C(=O)N1O`: the pIC50 in [2] is 3.30. On the same count and under the same terms, next, `CCC(=O)c1c(O)n(O)c2cc(NC(=O)Nc3ccc(Cl)cc3)ccc12`: 4.42; `O=C1CCc2ccccc2C(=O)N1O`: 3.00; `O=C(Nc1ccc2c(C(=O)c3ccccc3)c(O)n(O)c2c1)NC1CCCCC1`: 4.30.

`NN1C(=O)Cc2ccccc2C1=O` had a pIC50 in test [2] of 3.10. As to `Nc1cc(OCCOCP(=O)(O)O)nc(N)n1`, the figures for the pIC50 with Human alphaherpesvirus 2 and with Human alphaherpesvirus 1 were 10.04 and 10.61, respectively.
